Reference: patent US12473551B2, “Small RNA-based drug, preparation and use thereof in prophylaxis and/or treatment of cardiomyopathy” (SOUTHWEST MEDICAL UNIVERSITY, priority 2023, dated 2025)
“Also recorded” adds a separate entry of the source.

How the values were obtained:
[1] = tested on: AC16 cardiomyocytes treated with AGEs; assay: Pharmacodynamics: CCK8 EC50 against AGEs-induced cardiomyocyte injury; format: cell-based, human; details: for protective effect over concentration gradient (relative survival of cardiomyocytes): 1, 10, 20, 30, 40, 50 nM + AGEs 200 μg/mL, 24 h; for EC50: 1-50 nM, 24 h + AGEs 200 μg/mL, CCK8, fitting curve, read-out: half-maximal effect concentration (EC50)
Procedure: The cell viability was detected by CCK8 assay after 24 h of cell treatment. The absorbance was measured at 450 nm using a microplate reader to calculate the half-maximal effect concentration (EC50), respectively. EC50 was calculated according to the following formula:
[formula] where the blank refers to the serum-free DMEM.

NACα protein = NACα protein (Homo sapiens, UniProt Q13765); assay: Localized surface plasmon resonance (SPR) binding to NACα protein; details: DEPC-treated water, 25° C.; for Kd: ratio Koff/Kon
Source text: The affinity of DICAR-JP45 and DICAR-JP for binding to NACα protein was compared using localized surface plasmon resonance (SPR) technology (Wuhan Yangene Biological Technology Co., Ltd.).
Among them, the dissociation coefficient Koff is used to characterize the constant of the dissociation velocity of DICAR-JP45 and NACα protein, the binding coefficient Kon is used to characterize the constant of the binding velocity of DICAR-JP45 and NACα protein, and the affinity constant KD is the ratio of Koff/Kon, indicating the equilibrium dissociation constant between DICAR-JP45 and NACα protein.

db/db mice = assay: Cardiac function of db/db mice after AAV9-DICAR-JP / AAV9-DICAR-JP45 tail vein injection; format: in vivo, mouse; details: for E′/a value: db/db mice 1.14, DICAR-JP p<0.05, DICAR-JP45 no statistical significance
Source text: In the present disclosure, Shanghai Jikai Gene Medical Technology Co., Ltd. was commissioned to construct AAV9-DICAR-JP and AAV9-DICAR-JP45 viruses based on the sequences shown in SEQ ID NOS: 12 and 10, including CMV bGlobin EGFP-MCS-WPRE hGH polyA as a viral plasmid construction skeleton element sequence, a vector with the number GV412, and NheI and Hind III as cloning sites; the construction of microRNA up involves extending the precursor sequence of microRNA approximately 100 bp each upstream and downstream of the genome, ensuring the splicing efficiency of microRNA.
The mice were divided into db/m+AAV9-GFP (mock control, 5×10^11 vg), db/db+AAV9-GFP (5×10^11 vg), db/db+AAV9-DICAR-JP (5×10^11 vg), db/db+AAV9-DICAR-JP45 (5×10^11 vg), and db/db+dapagliflozin (DAPA, 1.5 mg/kg/d) groups. AAV9 viruses were injected into the tail vein of the mice at the age of 4 months. The mice in the db/db group were administered by gastric gavage with DAPA at the age of 5 months, and the mice in the db/m group were controls without gastric gavage of DAPA. The changes of cardiac function were evaluated by small animal echocardiography at the age of 5, 6 and 7 months, respectively, cardiac remodeling was evaluated by Masson staining, and myocardial hypertrophy was evaluated by wheat germ agglutinin (WGA) staining.

[2] = tested on: AC16 human cardiomyocytes treated with AGEs; assay: CCK8 cell viability screening of candidate sequences in AGEs-treated cardiomyocytes; format: cell-based; details: for protective effect on cardiomyocytes compared with DICAR-JP / relative cell viability / protective effect at around 48 h: 20 nM, CCK8; for protective effect on cardiomyocytes compared with DICAR-JP: 24 h transfection; for protective effect on cardiomyocytes compared with DICAR-JP / relative cell viability: AGEs 200 μg/mL for 24 h; for protective effect at around 48 h: AGEs 200 μg/mL for 48 h
Procedure: In this example, CCK8 assay was used to evaluate the protective activity of the candidate sequences against cardiomyocytes treated with advanced glycation end products (AGEs, purchased from Bioss®, Cat #bs-1158P), so as to select a small RNA with a better protective effect on cardiomyocytes. The method included the following steps:
Cell culture: AC16 human cardiomyocytes (purchased from Guangzhou Jennio Biotech Co., Ltd., derived from ATCC) were cultured in DMEM (High Glucose) Complete Medium (supplemented with 10% fetal bovine serum (FBS) and 1% […]) in a 5% CO2, 37° C. incubator.
Grouping: Control, AGEs (200 μg/mL, 24 h/48 h), negative control (NC, 20 nM, 24 h), DICAR-JP4 (20 nM, 24 h), DICAR-JP6 (20 nM, 24 h), DICAR-JP18 (20 nM, 24 h), DICAR-JP23 (20 nM, 24 h), DICAR-JP27 (20 nM, 24 h), DICAR-JP28 (20 nM, 24 h), DICAR-JP29 (20 nM, 24 h), DICAR-JP32 (20 nM, 24 h), DICAR-JP40 (20 nM, 24 h), DICAR-JP45 (20 nM, 24 h), and DICAR-JP (20 nM, 24 h).
Nucleic acid transfection method: Two microliters (μL) each of Lipofectamine® RNAi MAX (Thermo Fisher Scientific RNi MAX, Cat #13778-500) and DICAR-JPN were diluted with Opti-MEM® Medium (50 μL), respectively, and then the two reagents were mixed well and incubated at room temperature for 5 min. The Lipofectamine® RNAi MAX-DICAR-JPN complex was added to the AC16 cell supernatant (50 μL/well, 24 h) on a 24-well plate. Afterward, the complete medium was replaced with serum-free DMEM, and the cell cycle was synchronized for 2 h. AC16 cells were treated with 200 μg/mL AGEs for 24 and 48 h, respectively, and their viability was evaluated by CCK8 assay.
Evaluation of cell viability by CCK8 assay: The cells were washed twice with phosphate-buffered saline (PBS) in the dark, and serum-free DMEM supplemented with CCK8 (CCK8: DMEM=1:9) was added; the well plate was placed back into the cell culture incubator for further incubation for 1 h, and the absorbance was measured at 450 nm using a microplate reader. The cell viability (%) was calculated according to the following formula: Cell viability=[(A450nmExperiment−A450nmBlank)]/[(A450nmControl−A450nmBlank)]×100%, where the blank refers to the serum-free DMEM.

ASC = assay: Western blot of pyroptosis-related protein ASC in AGEs-treated AC16 cells; format: cell-based, human; details: 40 nM, 24 h + AGEs 200 μg/mL, β-actin reference
Procedure: (§1) The DICAR-JP45 (40 nM) and DICAR-JP sequences were transfected into AC16 cell model for 24 h, respectively. The serum-free medium was replaced for starvation for 2 h, followed by treatment with AGEs (200 μg/mL) for 24 h, respectively. After the cells were treated, the expressions of pyroptosis-related proteins, GSDMD and apoptosis associated speck-like protein containing a CARD (ASC), were detected by Western blot (WB). The internal reference protein was β-actin. The WB was conducted according to the following steps.
(§2) The cells were rinsed twice with PBS, protein lysate (100 μL/well) was added, and the cells were lysed on ice for 30 min. The lysate was collected and centrifuged at 12000 rpm for 30 min at 4° C. After centrifugation, the supernatant protein was collected. The protein sample was mixed with the protein loading buffer at a 4:1 ratio and heated in a metal bath at 95° C. for 10 min, and the sample was stored at 4° C. […] Signals were detected by using enhanced chemiluminescent reagent, and the Western blot bands were quantitatively analyzed by Image J software. […]

GSDMD = assay: Western blot of pyroptosis-related protein GSDMD in AGEs-treated AC16 cells; format: cell-based, human; details: 40 nM, 24 h + AGEs 200 μg/mL, β-actin reference
Procedure: as §1, §2

[3] = AAV9 tail vein, echocardiography

Sequence: CAACCUCCGGGGCCACAAUAGCGAGAUUUGUAAGACUCCAGGGCCUCCCAG (chemistry not given here) [DICAR-JP, reference compound]
- protective effect over concentration gradient (relative survival of cardiomyocytes) [1]: increase within the concentration gradient range
- EC50 [1]: 26.2 nM
- Koff (NACα protein): 0.000866 s⁻¹
- Kon (NACα protein): 22600 M⁻¹ s⁻¹
- Kd (NACα protein): 38.3 nM
- E′/a value (db/db mice; AAV9 5×10^11 vg tail vein): 1.73
- cardiomyocyte hypertrophy (WGA staining) (db/db mice; AAV9 tail vein): effectively inhibit cardiomyocyte hypertrophy

Sequence: CAACCUCCGGGGCCACAAUAGCGAGAUUUGUAAGACUCUAGGGCCUCCCAG (chemistry not given here) [DICAR-JP45]
- efficacy duration [2]: over 24 h
- protective effect on cardiomyocytes compared with DICAR-JP [2]: significant protective effect
- relative cell viability [2]: higher cardiomyocyte viability; also recorded: close to that of the untreated group
- protective effect at around 48 h [2]: disappeared
- protective effect over concentration gradient (relative survival of cardiomyocytes) [1]: increase within the concentration gradient range
- EC50 [1]: 17.9 nM
- suppression of expression of ASC (ASC): more significantly compared with DICAR-JP
- suppression of expression of GSDMD (GSDMD): more significantly compared with DICAR-JP
- Koff (NACα protein): 0.000152 s⁻¹
- Kon (NACα protein): 25000 M⁻¹ s⁻¹
- Kd (NACα protein): 6.09 nM
- improvement in mouse cardiac function (db/db mice; 3 months after tail vein injection at age 4 months): a certain effect on improving cardiac function
- ejection fraction (EF) value (db/db mice; AAV9 5×10^11 vg tail vein, 3 months after injection, db/db mice 57.5%): 71.07%
- E′/a value (db/db mice; AAV9 5×10^11 vg tail vein): 1.45
- cardiomyocyte hypertrophy (WGA staining) (db/db mice; AAV9 tail vein): no significant effect on improving myocardial hypertrophy
- FS value (db/db mice; [3]): improve
- LVVs value (db/db mice; [3]): improve

Sequence: CAACCUCCGGGGCCACAAUAGCGAGAUUUGUAAGAUUCCAGGGCCUCCCAG (listed as RNA, chemistry not given here) [DICAR-JP40]
- protective effect on cardiomyocytes compared with DICAR-JP [2]: significant protective effect
- relative cell viability [2]: significantly higher than that of the model group
- protective effect at around 48 h [2]: disappeared
